Measurements published in publication PMC3660597, “Investigation of Specificity Determinants in Bacterial tRNA-Guanine Transglycosylase Reveals Queuine, the Substrate of Its Eucaryotic Counterpart, as Inhibitor” (PLoS ONE, 2013).
Positions count from the first letter of the chain named. Read-outs that look alike come from different tables or passages of the source.

Columns and labels:
[1] = molecular target: T1, Z. mobilis Tgt ("wild type" Tgt = Tgt(Tyr106Phe)) (Zymomonas mobilis, UniProt P28720, Y106F/C158V/A232S/V233G); experiment: X-ray crystal structure of complex; type: binding
T1 construct: recombinant from pET9d-ZM-Y106F in E. coli BL21(DE3)/pLysS, purified; homodimer; all variants including "wild type" carry Tyr106Phe
T1 sequence (P28720 2-386 Y106F/C158V/A232S/V233G): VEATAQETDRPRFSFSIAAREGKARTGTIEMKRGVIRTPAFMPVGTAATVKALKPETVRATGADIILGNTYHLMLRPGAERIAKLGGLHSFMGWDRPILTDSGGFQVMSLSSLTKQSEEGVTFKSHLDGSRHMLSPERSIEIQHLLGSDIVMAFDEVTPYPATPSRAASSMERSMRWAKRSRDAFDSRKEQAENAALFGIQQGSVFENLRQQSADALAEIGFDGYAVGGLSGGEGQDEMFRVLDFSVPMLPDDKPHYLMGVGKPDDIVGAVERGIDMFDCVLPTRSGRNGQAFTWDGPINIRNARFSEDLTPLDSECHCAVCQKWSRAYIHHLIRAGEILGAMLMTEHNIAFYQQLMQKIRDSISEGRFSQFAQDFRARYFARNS

[2] = molecular target: T2, Z. mobilis Tgt ("wild type" Tgt = Tgt(Tyr106Phe)) (Zymomonas mobilis, UniProt P28720, Y106F); experiment: inhibition of [[…]-3H]-guanine incorporation into tRNA(Tyr); type: biochemical; details: read-out: K ic
T2 construct: recombinant from pET9d-ZM-Y106F in E. coli BL21(DE3)/pLysS, purified; homodimer; all variants including "wild type" carry Tyr106Phe
Target sequence in this assay (P28720 2-386 Y106F/C158V): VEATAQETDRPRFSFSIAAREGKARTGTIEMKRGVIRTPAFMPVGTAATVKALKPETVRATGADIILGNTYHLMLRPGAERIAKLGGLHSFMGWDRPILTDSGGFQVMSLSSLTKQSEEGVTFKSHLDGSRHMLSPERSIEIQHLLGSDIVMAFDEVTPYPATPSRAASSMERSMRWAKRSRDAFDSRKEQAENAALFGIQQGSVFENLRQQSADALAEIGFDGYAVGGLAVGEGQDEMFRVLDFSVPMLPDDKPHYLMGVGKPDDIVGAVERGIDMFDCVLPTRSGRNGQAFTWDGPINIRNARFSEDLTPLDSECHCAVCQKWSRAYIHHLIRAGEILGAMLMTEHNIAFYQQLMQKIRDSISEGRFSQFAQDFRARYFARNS

[3] = molecular target: T2, Z. mobilis Tgt ("wild type" Tgt = Tgt(Tyr106Phe)); experiment: as above; type: biochemical; details: read-out: K ic; remark: listed apart in the source
Target sequence in this assay (P28720 2-386 Y106F): as the sequence (P28720 2-386 Y106F/C158V) above, with V157C counted along it

[4] = molecular target: T3, Z. mobilis Tgt ("wild type" Tgt = Tgt(Tyr106Phe)) (Zymomonas mobilis, UniProt P28720, C158V/V233G/Y106F); experiment: as above; type: biochemical; details: read-out: K ic
T3 construct: recombinant from pET9d-ZM-Y106F in E. coli BL21(DE3)/pLysS, purified; homodimer; all variants including "wild type" carry Tyr106Phe
T3 sequence (P28720 2-386 Y106F/C158V/V233G): T1 sequence (P28720 2-386 Y106F/C158V/A232S/V233G) with S231A

[5] = molecular target: T4, Z. mobilis Tgt ("wild type" Tgt = Tgt(Tyr106Phe)) (Zymomonas mobilis, UniProt P28720, V233G/Y106F); experiment: as above; type: biochemical; details: read-out: K ic
T4 construct: recombinant from pET9d-ZM-Y106F in E. coli BL21(DE3)/pLysS, purified; homodimer; all variants including "wild type" carry Tyr106Phe
T4 sequence (P28720 2-386 Y106F/V233G): T1 sequence (P28720 2-386 Y106F/C158V/A232S/V233G) with V157C, S231A

NCc1c[nH]c2nc(N)[nH]c(=O)c12 [preQ1, 7-aminomethyl-7-deazaguanine]
X-ray crystal structure of complex ([1]; soaking): in complex with preQ1 and in complex with queuine

Nc1nc2[nH]cc(CN[C@H]3C=C[C@H](O)[C@@H]3O)c2c(=O)[nH]1 [queuine, 7-(((4,5-cis-dihydroxy-2-cyclopenten-1-yl)amino)methyl)-7-deazaguanine]
Ki [2]: 3.8 ± 0.5 µM | Ki [3]: 3.8 ± 0.6 µM | X-ray crystal structure of complex ([1]; cocrystallisation): in complex with preQ1 and in complex with queuine | Ki [4]: 8.9 ± 1.2 µM | Ki [5]: 3.1 ± 0.2 µM
